Laboratory results taken from patent publication US11065211B2, “Isoxylitones mediated neurogenesis” (priority 2018, dated 2021).

Assays:
Assay type in all cases: cell-based, rat
cortical cells = experiment: AlamarBlue proliferation assay; conditions: 24 h treatment, vs control, FIG. 3
From the text: (§1) AlamarBlue (AB), a water-soluble dye having resazurin salt was used to evaluate the effect of isoxylitones on the proliferation of the cultured cells. AB measures mitochondrial reductase activity of live cells. The resazurin has ability to enter the cytosol of viable cell and converted to the reduced fluorescent form resorufin by mitochondrial enzyme activity by accepting electrons from NADPH, FADH, FMNH, NADH as well as from the cytochromes. The redox reaction is accompanied by a change in color of the culture medium from blue to fluorescent red (Al-Nasiry, Geusens, Hanssens, Luyten, Pijnenborg, 2007). The amount of fluorescence produced is proportional to the number of living cells (Al-Nasiry, Geusens, Hanssens, Luyten, Pijnenborg, 2007). The cultured hippocampal, cortical and co-cultures were plated in 96-well plates (10,000 cells/well) and incubated for 24 hrs at 37° C. and 5% CO2. […] After incubation, the fluorescence intensity in each well was recorded at an excitation wavelength of 570 nm and an emission wavelength of 600 nm. The rate of cell proliferation was expressed as the relative fluorescence intensity. […] The blank media fluorescence measurement was subtracted from fluorescence measurements of cells from the same run.
(§2) Formula used to calculate the percentage reduction of AB using absorbance readings: […]

hippocampal cells = experiment: AlamarBlue proliferation assay; conditions: 24 h treatment, vs control, FIG. 3
From the text: as §1, §2

Calretinin (CR) = experiment: Immunocytochemical analysis of primary cultured and cocultured cells; conditions: vs control
Procedure: (§3) Immuncytochemical analysis was performed for differentiation studies of primary cultures of cortex, hippocampus, and co-cultures (CoCul) in absence of growth factors and serum free medium.
(§4) The cultured cells of cortex, hippocampus, and co-cultured cells in the presence of serum free medium were plated in chamber slides at the density of 20,000 cells/mL and treated with a proliferative dose of isoxylitones, i.e., 150 μg/ml for 24 hrs at 37° C. and 5% CO2 to let the cells adhere on the bottom surface of the slide. Following incubation, the media was refreshed and the cells were immunolabelled as mentioned in table #2.1.
(§5) For immunostaining, the media was removed; cells were washed gently with 1 mL of 1×PBS. After removing 1×PBS, 4% formaldehyde was added and the slides were incubated for 20 minutes at room temperature to fix the cells. The fixative was aspirated followed by a three times rinse with 1 mL of 1×PBS. After washing, the blocking buffer (BSA having 3% normal goat serum, 0.2% tween-20 and 0.3% of Triton X-100 in 10×PBS) was added and the slides were kept at room temperature for an hour. Then, the cells were washed gently three times with 1×PBS on an orbital shaker and 300 μL of primary antibodies (dilution mentioned in table #2.1) were added to each slide and incubated overnight at 4° C. Following incubation, the cells were washed gently in PBS three times (5 minutes each wash) on an orbital shaker. Next secondary antibody (Table #2.1) in 3% normal serum or BSA was added to their respective chamber and incubated for 1 hour at room temperature in dark. Following incubation, the slides were washed with 1×PBS.
(§6) Diluted Dapi (1:1000) was added into each slide to counter stain the nucleus. After rinsing twice with distilled water, images were captured using the Nikon 90i with fluorescence microscopes (Nikon. Tokyo, Japan) equipped with Nuance Software version 3.1 (Caliper Life Sciences. Hopkinton, Mass.). The magnification used was 20×.
(§7) For quantification studies, ImageJ software (National Institutes of Health, USA) was used to digitalized the images. This software provides multiple imaging system data comparisons taking densitometry in consideration. Briefly, 5 different regions were randomly selected and the fluorescence intensity was quantified in cells and the background intensity of each image was subtracted from it, the residual particles were measured to represent expression of relevant protein. Cells or fields were counted and percentage intensity of protein expression was measured and means percentage intensity was calculated. Data from three individual experiments was obtained and expressed as means±SEM.

tubulin = experiment: as above
Procedure: as §3, §4, §5, §6, §7

For `CC(=O)C=C1C=C(C)CC(C)(C)C1` (mixture of isomers) [isoxylitones], the “proliferation (Alamar blue)” value (cortical cells) was “growth supportive and proliferative effect”, the “proliferation (Alamar blue)” value (hippocampal cells) was “growth supportive and proliferative effect” and the “Calretinin (CR) fluorescent intensity” value (Calretinin (CR); (A) cortical and (B) CoCul-CTX cells, FIG. 14) was “prominent increase in the fluorescent intensity of calretinin”. For the same molecule, the “CR expression (immunoreactivity)” value (Calretinin (CR); (A) hippocampal and (B) CoCul-HP cells, FIG. 15) was “significant increase in CR expression”, the “tubulin expression (immunofluorescence)” value (tubulin; (A) cortical and (B) CoCul-CTX cells, P<0.01, FIG. 12) was “significant upregulation of tubulin” and the “tubulin expression (immunofluorescence)” value (tubulin; (A) hippocampal and (B) CoCul-HP cells, 150 μg/ml, 24 h, vs control, FIG. 13) was “significant upregulation”.
